Experimental data taken from US20220267313A1, “DIHYDROPYRIMIDINE DERIVATIVES AND USES THEREOF IN THE TREATMENT OF HBV INFECTION OR OF HBV-INDUCED DISEASES” (Janssen Sciences Ireland Unlimited Company, priority 2019, published 2022).

Legend:
HBV = experiment: Anti-HBV activity: HBV DNA in culture medium by qPCR, HepG2.2.15 cells; assay type: cell-based; settings: Hepatitis B virus, 144 h, 6 days treatment
Experimental: (§1) HepG2.2.15 (the HepG2.2.15 cell line can be produced by transfection of the HepG2 cell line as described in Sells, Chen, and Acs 1987 (Proc. Natl. Acad. Sci. USA 84: 1005-1009), and the HepG2 cell line is available from ATCC® under number HB-8065™)
(§2) HepG2.2.15 cells were plated into 96-well plate in 2% FBS culture medium at the density of 40,000 cells/well and 5,000 cells/well for HBV inhibitory activity and cytotoxicity determination, respectively. After incubation at 37° C., 5% CO2 overnight, cells were treated with medium containing compounds for 6 days with medium and compounds refreshed after 3 days of treatment. Each compound was tested in a 1:3 serial dilutions at 8 different concentrations in triplicate. The highest concentration of the compounds was 10 uM or 1 uM for anti-HBV activity assay and 100 uM for cytotoxicity determination.
The change of HBV DNA level induced by the compounds was assessed by quantitative real-time polymerase chain reaction (qPCR). Briefly, the HBV DNA in the culture medium was extracted using QIAamp 96 DNA Blood Kit according to the manual and then quantified by real-time PCR assay using the primers and probe in the table 1 below.
(§3) EC50 and CC50 values are calculated by the GRAPHPAD PRISM software.

[1] = Cytotoxicity determination by CCK-8 assay, HepG2.2.15 cells; assay type: cell-based; settings: human, 6 days treatment
Experimental: as §1, §2
Cell viability was determined by CCK-8 assay. After 6 days of compounds treatment, 20 μl CCK-8 reagents were added to each well of cytotoxicity assay plates. Cell plates were incubated at 37° C., 5% CO2 for 2.5 h. The absorbance at 450 nm wavelength and the absorbance at 630 nm wavelength as reference was measured.
as §3

Row | Compound | EC50 (HBV) [µM] | CC50 at 6 days [1] [nM]
1 | COC(=O)C1=C(C23C4C5C2C2C3C4C52C(=O)O)NC(c2nccn2C)=NC1c1ccc(F)c(F)c1Cl (single isomer, unassigned) [Ia-2, (R*)-4-(6-(2-chloro-3,4-difluorophenyl)-5-(methoxycarbonyl)-2-(1-methyl-1H-imidazol-2-yl)-3,6-dihydropyrimidin-4-yl)cubane-1-carboxylic Acid] | > 100 | 295
2 | COC(=O)C1=C(C23C4C5C2C2C3C4C52C(=O)O)NC(c2nccs2)=N[C@@H]1c1ccc(F)c(F)c1C (single isomer, unassigned) [Ia-3] | > 50 | 45
3 | CCOC(=O)C1=C(C23C4C5C2C2C3C4C52C(=O)O)NC(c2nccn2C)=NC1c1ccc(F)c(F)c1Cl (single isomer, unassigned) [Ia-4, (R*)-4-(6-(2-chloro-3,4-difluorophenyl)-5-(ethoxycarbonyl)-2-(1-methyl-1H-imidazol-2-yl)-3,6-dihydropyrimidin-4-yl)cubane-1-carboxylic Acid] | > 50 | 55
4 | CCOC(=O)C1=C(C23C4C5C2C2C3C4C52C(=O)O)NC(c2nccs2)=NC1c1ccc(F)cc1C (single isomer, unassigned) [Ia-5, (R*)-4-(5-(ethoxycarbonyl)-6-(4-fluoro-2-methylphenyl)-2-(thiazol-2-yl)-3,6-dihydropyrimidin-4-yl)cubane-1-carboxylic Acid] | > 50 | 43
5 | CCOC(=O)C1=C(C23C4C5C2C2C3C4C52C(=O)O)NC(c2nccs2)=N[C@H]1c1ccc(F)cc1Br (single isomer, unassigned) [Ia-6, (R*)-4-(6-(2-bromo-4-fluorophenyl)-5-(ethoxycarbonyl)-2-(thiazol-2-yl)-3,6-dihydropyrimidin-4-yl)cubane-1-carboxylic Acid] | > 12.5 | 11.5
6 | COC(=O)C1=C(C23C4C5C2C2C3C4C52CC(=O)O)NC(c2nccs2)=N[C@@H]1c1ccc(F)cc1Cl (single isomer, unassigned) [Ib-1, 2-((1S,2R,3R,8S)-4-((S*)-6-(2-chloro-4-fluorophenyl)-5-(methoxycarbonyl)-2-(thiazol-2-yl)-3,6-dihydropyrimidin-4-yl)cuban-1-yl)acetic Acid] | 42 | 360
7 | COC(=O)C1=C(C23C4C5C2C2C3C4C52c2nc(C(=O)O)co2)NC(c2nccs2)=N[C@@H]1c1ccc(F)cc1Cl (single isomer, unassigned) [Ib-2, 2-((1R,2R,3R,8S)-4-((S*)-6-(2-chloro-4-fluoro-phenyl)-5-(methoxycarbonyl)-2-(thiazol-2-yl)-3,6-dihydropyrimidin-4-yl)cuban-1-yl)oxazole-4-carboxylic Acid] | 24 | 110
8 | COC(=O)C1=C(C23C4C5C2C2C3C4C52C(=O)O)NC(c2nccs2)=N[C@@H]1c1ccc(F)cc1Cl (single isomer, unassigned) [Ib-3, (1R,2R,3R,8S)-4-((S*)-6-(2-chloro-4-fluorophenyl)-5-(methoxycarbonyl)-2-(thiazol-2-yl)-3,6-dihydropyrimidin-4-yl)cubane-1-carboxylic Acid] | 70 | 84
9 | COC(=O)C1=C(C23C4C5C2C2C3C4C52C(=O)O)NC(c2nccs2)=N[C@@H]1c1ccc(F)c(F)c1Cl (single isomer, unassigned) [Ib-4, (1R,2R,3R,8S)-4-((S*)-6-(2-chloro-3,4-difluorophenyl)-5-(methoxycarbonyl)-2-(thiazol-2-yl)-3,6-dihydropyrimidin-4-yl)cubane-1-carboxylic Acid] | 51 | 22
10 | CCOC(=O)C1=C(C23C4C5C2C2C3C4C52C(=O)O)NC(c2nccs2)=N[C@H]1c1cccc(F)c1C (single isomer, unassigned) [Ib-5, (1R,2R,3R,8S)-4-((S*)-5-(ethoxycarbonyl)-6-(3-fluoro-2-methylphenyl)-2-(thiazol-2-yl)-3,6-dihydropyrimidin-4-yl)cubane-1-carboxylic Acid] | 49 | 17
11 | COC(=O)C1=C(C23C4C5C2C2C3C4C52C(=O)O)NC(c2nccs2)=N[C@@H]1c1cccc(F)c1Cl (single isomer, unassigned) [Ib-8, (1S,2R,3S,8S)-4-((S*)-6-(2-chloro-3-fluorophenyl)-5-(methoxycarbonyl)-2-(thiazol-2-yl)-3,6-dihydropyrimidin-4-yl)cubane-1-carboxylic Acid] | > 50 | 132
12 | CCCOC(=O)C1=C(C23C4C5C2C2C3C4C52C(=O)O)NC(c2nccs2)=NC1c1ccc(F)c(F)c1Cl (single isomer, unassigned) [Ib-11, (S*)-4-(6-(2-chloro-3,4-difluorophenyl)-5-(propoxycarbonyl)-2-(thiazol-2-yl)-3,6-dihydropyrimidin-4-yl)cubane-1-carboxylic Acid] | 22 | 52
13 | CC(C)OC(=O)C1=C(C23C4C5C2C2C3C4C52C(=O)O)NC(c2nccs2)=NC1c1ccc(F)c(F)c1Cl (single isomer, unassigned) [Ib-12, (S*)-6-(6-Carboxy-cuban-3-yl)-4-(2-chloro-3,4-difluoro-phenyl)-2-thiazol-2-yl-1,4-dihydro-pyrimidine-5-carboxylic Acid Isopropyl Ester] | 28 | 37
14 | CCOC(=O)C1=C(C23C4C5C2C2C3C4C52C(=O)O)NC(c2ncc(F)cc2F)=NC1c1cccc(F)c1C (single isomer, unassigned) [Ib-18, (S*)-4-(2-(3,5-difluoropyridin-2-yl)-5-(ethoxycarbonyl)-6-(3-fluoro-2-methylphenyl)-3,6-dihydropyrimidin-4-yl)cubane-1-carboxylic Acid] | > 12.5 | 61
15 | CCOC(=O)C1=C(C23C4C5C2C2C3C4C52C(=O)O)NC(c2nccs2)=N[C@@H]1c1cccc(F)c1Br (single isomer, unassigned) [Ib-19, (1S,2R,3S,8S)-4-((S*)-6-(2-bromo-3-fluorophenyl)-5-(ethoxycarbonyl)-2-(thiazol-2-yl)-3,6-dihydropyrimidin-4-yl)cubane-1-carboxylic Acid] | > 25 | 12.5
16 | CCOC(=O)C1=C(C23C4C5C2C2C3C4C52C(=O)O)NC(c2nccs2)=NC1c1ccc(F)c(F)c1F (single isomer, unassigned) [Ib-20, (S*)-4-(5-(ethoxycarbonyl)-2-(thiazol-2-yl)-6-(2,3,4-trifluorophenyl)-3,6-dihydropyrimidin-4-yl)cubane-1-carboxylic Acid] | 46 | 28
17 | COC(=O)C1=C(C23C4C5C2C2C3C4C52C(=O)O)NC(c2nccs2)=NC1c1ccc(F)cc1C (single isomer, unassigned) [Ib-21, (S*)-4-(6-(4-fluoro-2-methylphenyl)-5-(methoxycarbonyl)-2-(thiazol-2-yl)-3,6-dihydropyrimidin-4-yl)cubane-1-carboxylic Acid] | > 50 | 250
18 | CCOC(=O)C1=C(C23C4C5C2C2C3C4C52C(=O)O)NC(c2nccs2)=NC1c1ccc(Cl)c(F)c1 (single isomer, unassigned) [Ib-23, (S*)-4-(6-(4-chloro-3-fluorophenyl)-5-(ethoxycarbonyl)-2-(thiazol-2-yl)-3,6-dihydropyrimidin-4-yl)cubane-1-carboxylic Acid] | > 6.25 | 13
19 | COC(=O)C1=C(C23C4C5C2C2C3C4C52C(=O)O)NC(c2ncc(F)cc2F)=NC1c1cccc(F)c1C (single isomer, unassigned) [Ib-26, (S*)-4-(2-(3,5-difluoropyridin-2-yl)-5-(methoxycarbonyl)-6-(3-fluoro-2-methylphenyl)-3,6-dihydropyrimidin-4-yl)cubane-1-carboxylic Acid] | > 12.5 | 160
20 | CCOC(=O)C1=C(C23C4C5C2C2C3C4C52CC(C)(C)C(=O)O)NC(c2nccs2)=N[C@@H]1c1ccc(F)c(F)c1Cl (single isomer, unassigned) [Ib-28, (S*)-3-(4-(6-(2-chloro-3,4-difluorophenyl)-5-(ethoxycarbonyl)-2-(thiazol-2-yl)-3,6-dihydropyrimidin-4-yl)cuban-1-yl)-2,2-dimethylpropanoic Acid] | 16 | 26.5
21 | COC(=O)C1=C(C23C4C5C2C2C3C4C52C(=O)O)NC(c2nccs2)=N[C@@H]1c1cccc(F)c1C (stereo in doubt) [Ia-1, (2R,3R,5R,6R,7R,8R)-4-((R*)-6-(3-fluoro-2-methylphenyl)-5-(methoxycarbonyl)-2-(thiazol-2-yl)-3,6-dihydropyrimidin-4-yl)cubane-1-carboxylic Acid] | > 50 | 204
22 | CCOC(=O)C1=C(C23C4C5C2C2C3C4C52C(=O)O)NC(c2nccs2)=N[C@@H]1c1ccc(F)cc1Cl (stereo in doubt) [Ib-6, (2S,3S,5S,6S,7S,8S)-4-((S*)-6-(2-chloro-4-fluorophenyl)-5-(ethoxycarbonyl)-2-(thiazol-2-yl)-3,6-dihydropyrimidin-4-yl)cubane-1-carboxylic Acid] | > 50 | 18
